The text below walks through data of patent US20180125792A1, “NON-STEROIDAL ANTI-INFLAMMATORY DRUGS FOR COUGH” (BAYER CONSUMER CARE AG, priority 2006, published 2018).

For experiment [1] the following is noted: 600 mg three times a day for 6 days; cited from earlier work.
The conditions of experiment [2]: cited from earlier work.
Experiment [3] in a line: Symptomatic treatment of nonproductive cough in 3 volunteer patients in the final phase of a viral infection. The class given is in vivo, human. As for the experimental part: The efficacy of ibuprofen in the symptomatic treatment of nonproductive cough was determined in 3 volunteer patients in the final phase of a viral infection. For this purpose, the patients received oral administration of 400 or 800 mg of ibuprofen (the daily dose was between 400 and 1200 mg). No other medicaments were taken by the patients during the viral infection.
It was observed after administration of ibuprofen that the number of attacks of coughing was reduced by more than 50% relative to the number of attacks of coughing before administration of ibuprofen.
The effects of ibuprofen declined after 6 to 8 hours and the cough reappeared in the former severity.

Where [4] appears, read: oral 400 or 800 mg ibuprofen, patients' report.

Each structure is given as a SMILES string.

With `CC(C)Cc1ccc(C(C)C(=O)O)cc1` (stereo not drawn) [ibuprofen], the “number of coughing episodes compared with placebo” value in experiment [1] is given as “reduction in the number of coughing episodes”. Moreover, the symptoms of cough entry in experiment [2] (10 mg/kg, 30 children, uncontrolled study) was “reduction in the symptoms of cough”. In addition, the “number of attacks of coughing reduced relative to the number before administration” value in experiment [3] (oral 400 or 800 mg ibuprofen (daily dose 400-1200 mg), 3 patients) was “more than 50%”. Moreover, in experiment [3] (setting [4]), the “intensity of the urge to cough” value is recorded as “reduced” and the “severity of the attacks of coughing” value is on record as “reduced”. In experiment [3] (oral 400 or 800 mg ibuprofen, without additional cough suppressant), the “patients' rest at night” value is listed as “possible to improve the patients' rest at night”. Also, the “symptoms of cough after renewed administrations” value in experiment [3] (subsequent renewed administrations of ibuprofen) was “again led to the described improvement”.

As to `CC(=O)Nc1ccc(O)cc1` [paracetamol], the “alleviation of the symptoms of cough” value in experiment [2] (5 days, paracetamol 10 mg/kg 3x a day vs ibuprofen or nimesulide) is recorded as “greater”.

`CS(=O)(=O)Nc1ccc([N+](=O)[O-])cc1Oc1ccccc1` [nimesulide]: the fever-reducing effect entry in experiment [2] (5 days, nimesulide 2.5 mg/kg 2x a day vs paracetamol or ibuprofen 10 mg/kg 3x a day) is “better and faster than that of paracetamol or ibuprofen”.
